These results are taken from ChEMBL document CHEMBL5385848, “Discovery of novel hydroxyamidine based indoleamine 2,3-dioxygenase 1 (IDO1) and thioredoxin reductase 1 (TrxR1) dual inhibitors” (Eur J Med Chem, 2023).

One may read the EC50 as the concentration at which the effect is half-maximal. Lower therefore signals an effect from little substance. The IC50 is the midpoint of a concentration-inhibition curve.

Activity calls are given as the source filed them. No cut-off for these calls is given here.

Data set [1] concerns HCT-116. The data set can be described thus: Antitumor activity against human HCT-116 cells xenografted in athymic nude BALB/c mouse assessed as reduction in mitosis of tumor cells at 15 to 60 mg/kg, ig administered daily for 28 days and measured every 4 days. It is filed as functional, organism-based. Conditions: dose 15-60 mg/kg, time 28.0 day. Background: Xenograft models place foreign cells or tissue in a host animal.

Data set [2] relates to HCT-116. Put plainly: Induction of apoptosis in human HCT-116 cells assessed as apoptotic rate at 2.5 uM pretreated with NAC incubated for 24 hrs by Annexin-V/PI staining based flow cytometry analysis (reference value: 9.8 +/- 1.59%). It is filed as functional. (In general: Flow cytometry measures light scatter and fluorescence of single cells or particles in a stream.)
Data set [3] has as its system HCT-116. Put plainly: Induction of cell cycle arrest in human HCT-116 cells assessed as G1/S phase arrest at 2.5 to 10 uM incubated for 24 hrs by PI staining based flow cytometry analysis. It is filed as functional. As to conditions: dose 2.5-10 µM.
The target of data set [4] is T1, Thioredoxin reductase 1, cytoplasmic (Homo sapiens, UniProt Q16881).
T1 sequence (Q16881 whole entry): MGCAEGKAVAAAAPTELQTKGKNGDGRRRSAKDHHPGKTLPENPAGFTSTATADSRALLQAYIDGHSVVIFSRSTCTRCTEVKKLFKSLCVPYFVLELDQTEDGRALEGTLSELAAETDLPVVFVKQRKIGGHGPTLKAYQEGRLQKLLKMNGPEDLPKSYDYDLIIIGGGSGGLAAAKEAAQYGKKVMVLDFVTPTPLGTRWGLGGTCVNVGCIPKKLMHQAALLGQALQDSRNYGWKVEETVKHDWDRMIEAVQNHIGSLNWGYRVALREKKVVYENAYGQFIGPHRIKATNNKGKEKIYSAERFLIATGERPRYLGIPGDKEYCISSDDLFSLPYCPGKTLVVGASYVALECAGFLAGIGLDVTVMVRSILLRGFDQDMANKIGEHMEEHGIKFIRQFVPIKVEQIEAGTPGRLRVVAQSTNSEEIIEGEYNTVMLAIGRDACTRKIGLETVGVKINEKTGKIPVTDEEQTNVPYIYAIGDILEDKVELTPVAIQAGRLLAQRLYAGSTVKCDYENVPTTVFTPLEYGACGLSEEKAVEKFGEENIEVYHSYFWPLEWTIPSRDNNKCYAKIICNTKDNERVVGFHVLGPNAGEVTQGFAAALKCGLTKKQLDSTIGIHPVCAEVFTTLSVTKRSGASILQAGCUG
The data set can be described thus: Inhibition of TrxR1 in human HeLa cells incubated for 24 hrs. It is filed as cell-based.

Data set [5] deals with HCT-116. Put plainly: Induction of apoptosis in human HCT-116 cells assessed as caspase-7 activation incubated for 24 hrs. It is filed as functional, cell-based. Conditions: dose 2.5-10 µM.
Data set [6] relates to HCT-116. The data set can be described thus: Antitumor activity against human HCT-116 cells xenografted in athymic nude BALB/c mouse assessed as increase in necrosis of tumor cells at 15 to 60 mg/kg, ig administered daily for 28 days and measured every 4 days. It is filed as functional, organism-based. Conditions: dose 15-60 mg/kg, time 28.0 day.
Data set [7] deals with HeLa. Put plainly: Cytotoxicity against IDO1 knockdown human HeLa cells incubated for 24 hrs by CCK-8 assay (reference value: 45.93 +/- 2.23 nM). It is filed as functional, cell-based. (In general: Tetrazolium dyes change colour on reduction, which living cells bring about.)
In data set [8] the target is Indoleamine 2,3-dioxygenase 1 (Mus musculus) (UniProt P28776). The data set can be described thus: In vivo inhibition of IDO1 in BALB/c mouse implanted with mouse CT-26 cells assessed as increase in plasma Trp level at 60 mg/kg, po administered once daily by LC-MS/MS analysis. It is filed as functional, organism-based.
Data set [9] deals with HCT-116. The data set can be described thus: Cytotoxicity against TrxR1 knockdown human HCT-116 cells incubated for 24 hrs by CCK-8 assay (reference value: 3.08 +/- 0.55 uM). It is filed as functional, cell-based. As to conditions: HCT-116, 24 h.
For data set [10], the system named is HCT-116. The data set can be described thus: Cytotoxicity against human HCT-116 cells transfected with TrxR1 siRNA incubated for 24 hrs by CCK-8 assay (reference value: 3.49 +/- 0.28 uM). It is filed as functional, cell-based. Conditions: HCT-116, 24 h.
The nature of data set [11]: Toxicity in athymic BALB/c mouse xenografted with human HCT-116 cells assessed as change in kidney morphology at 15 to 60 mg/kg, ig administered daily for 28 days and measured every 4 days. It is filed as organism-based. Conditions: in vivo, po, 672 h, dose 15-60 mg/kg, time 28 day.
The nature of data set [12]: Cytotoxicity against human HCT-116 cells incubated for 48 hrs by CCK-8 assay. It is filed as toxicity, cell-based.
Data set [13] concerns CT26. Put plainly: Antitumor activity against mouse CT26 cells implanted in athymic nude BALB/c mouse assessed as reduction in nTreg lymphocytes at 15 to 60 mg/kg, ig administered daily for 28 days and measured every 4 days by immunofluorescence analysis. It is filed as functional, organism-based. Conditions: dose 15-60 mg/kg, time 28.0 day.
Data set [14] is described as follows: Toxicity in athymic BALB/c mouse xenografted with human HCT-116 cells assessed as change in lung morphology at 15 to 60 mg/kg, ig administered daily for 28 days and measured every 4 days. It is filed as organism-based. As to conditions: in vivo, po, 672 h, dose 15-60 mg/kg, time 28 day.
Data set [15] deals with Indoleamine 2,3-dioxygenase 1 (Mus musculus) (UniProt P28776). The data set can be described thus: In vivo inhibition of IDO1 in BALB/c mouse implanted with mouse CT-26 cells assessed as reduction in plasma Kyn level at 60 mg/kg, po administered once daily by LC-MS/MS analysis. It is filed as functional, organism-based.
Data set [16] relates to HCT-116. The data set can be described thus: Cytotoxicity against human HCT-116 cells incubated for 24 hrs in presence of NAC CCK-8 assay. It is filed as functional, cell-based. Conditions: HCT-116, 24 h.
For data set [17], the target named is T2, Thioredoxin reductase 1, cytoplasmic (Rattus norvegicus, UniProt O89049).
T2 sequence (O89049 whole entry): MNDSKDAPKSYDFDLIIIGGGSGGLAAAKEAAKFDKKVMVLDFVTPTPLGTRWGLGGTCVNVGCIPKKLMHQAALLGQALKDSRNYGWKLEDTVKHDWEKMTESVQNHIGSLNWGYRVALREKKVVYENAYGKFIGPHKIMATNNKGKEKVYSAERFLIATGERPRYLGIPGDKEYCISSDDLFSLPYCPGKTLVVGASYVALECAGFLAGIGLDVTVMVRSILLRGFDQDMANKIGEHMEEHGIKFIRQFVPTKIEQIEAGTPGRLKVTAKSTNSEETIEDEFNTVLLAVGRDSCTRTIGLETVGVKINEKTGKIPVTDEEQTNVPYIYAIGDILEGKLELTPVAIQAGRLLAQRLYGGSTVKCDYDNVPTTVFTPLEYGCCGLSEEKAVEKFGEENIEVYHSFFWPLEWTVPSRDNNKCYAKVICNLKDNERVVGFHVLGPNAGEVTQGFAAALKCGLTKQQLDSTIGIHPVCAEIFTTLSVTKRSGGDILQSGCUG
The data set can be described thus: Inhibition of recombinant rat TrxR1 incubated for 1 hr in presence of NADPH by microplate reader analysis.

The test system of data set [18] is HCT-116. The data set can be described thus: Antitumor activity against human HCT-116 cells xenografted in athymic nude BALB/c mouse assessed as increase in apoptotic cells at 15 to 60 mg/kg, ig administered daily for 28 days and measured every 4 days by tunel assay. As to conditions: dose 15-60 mg/kg, time 28.0 day. It is filed as functional, organism-based.

For data set [19], the system named is CT26. The data set can be described thus: Antitumor activity against mouse CT26 cells implanted in athymic nude BALB/c mouse assessed as reduction in CD4+CD25+Foxp3+ lymphocytes at 15 to 60 mg/kg, ig administered daily for 28 days and measured every 4 days by immunofluorescence analysis. It is filed as functional, organism-based. As to conditions: dose 15-60 mg/kg, time 28.0 day.

Data set [20] has as its system HeLa. Put plainly: Induction of ROS generation in human HeLa cells incubated for 4 hrs by DCFH-DA staining based flow cytometry analysis. It is filed as functional, cell-based. Conditions: dose 2.5-10 µM.
The target in data set [21] is Tryptophan 2,3-dioxygenase (Homo sapiens, UniProt P48775). Put plainly: Inhibition of TDO (unknown origin) using L-Trp as substrate incubated for 75 mins.
Data set [22] concerns CT26. The data set can be described thus: Antitumor activity against ig dosed mouse CT26 cells implanted in […] BALB/c mouse assessed as reduction in tumor weight administered daily for 28 days and measured every 4 days. It is filed as functional, organism-based. As to conditions: dose 15-60 mg/kg, time 28.0 day.
Data set [23] can be described thus: Cytotoxicity against human HeLa cells incubated for 48 hrs by CCK-8 assay. It is filed as toxicity, cell-based.

Chain of Indoleamine 2,3-dioxygenase 1 (Mus musculus) (P28776 whole entry, looked up): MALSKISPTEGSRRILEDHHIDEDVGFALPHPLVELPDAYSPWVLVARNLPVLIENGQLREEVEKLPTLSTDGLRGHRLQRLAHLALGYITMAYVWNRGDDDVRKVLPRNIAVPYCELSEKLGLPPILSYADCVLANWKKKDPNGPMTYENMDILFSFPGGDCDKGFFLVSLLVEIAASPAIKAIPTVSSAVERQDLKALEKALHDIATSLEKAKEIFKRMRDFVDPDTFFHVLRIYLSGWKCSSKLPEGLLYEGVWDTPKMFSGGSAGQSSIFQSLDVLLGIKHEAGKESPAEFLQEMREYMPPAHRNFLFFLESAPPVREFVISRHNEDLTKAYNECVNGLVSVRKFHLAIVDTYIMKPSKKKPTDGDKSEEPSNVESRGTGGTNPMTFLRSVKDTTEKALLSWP
Chain of Tryptophan 2,3-dioxygenase (P48775 whole entry): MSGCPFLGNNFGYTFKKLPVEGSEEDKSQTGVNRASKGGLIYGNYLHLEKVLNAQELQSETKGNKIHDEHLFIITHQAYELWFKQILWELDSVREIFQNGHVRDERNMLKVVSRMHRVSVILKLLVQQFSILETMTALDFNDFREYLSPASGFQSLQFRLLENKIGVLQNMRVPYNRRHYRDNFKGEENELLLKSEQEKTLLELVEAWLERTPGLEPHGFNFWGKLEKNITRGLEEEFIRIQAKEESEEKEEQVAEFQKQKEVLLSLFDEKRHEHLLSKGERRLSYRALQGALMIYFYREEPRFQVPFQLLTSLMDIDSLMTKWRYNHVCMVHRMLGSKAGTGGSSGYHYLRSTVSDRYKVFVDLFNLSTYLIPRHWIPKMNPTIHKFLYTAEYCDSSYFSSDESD

Take `O=C(Cc1ccc(O)cc1)Nc1nnc(CCCNc2nonc2/C(=N\O)Nc2ccc(F)c(Br)c2)s1`: the result (with HCT-116 [1]; with HCT-116 [3]; in the data set on HCT-116 [6]; in data set [8]; in the data set with CT26 [13]; in data set [15]) was Active. Also, the outcome in the data set on HCT-116 [18] and with CT26 [19] was Active. Further, the Activity with HCT-116 [2] was 10.37%; in the data set on HCT-116 [5], “Dose-Dependent Effect”; in data set [11] it was “Non-Toxic”; in data set [14] it was “Non-Toxic”; with HeLa [20], “Dose-Dependent Effect”; in the data set with CT26 [22], “Dose-Dependent Effect”. The compound also came in with an EC50 in data set [4] of 13.1 µM. Moreover, the IC50 is 26.1 µM in the data set with HeLa [7]; 1.52 µM in the data set with HCT-116 [9]; 1.67 µM with HCT-116 [10]; 60.8 µM with HCT-116 [16]; 3 µM in [17]; 54.2 µM in [21]. Moreover, the results for the IC50 at 48 h in data set [12] and in [23] were 3.44 µM and 10.2 µM, respectively.
